The text below walks through data of US20220177477A1 (Central China Normal University, priority 2019, published 2022).

The term IC50 denotes the concentration that gives 50% inhibition.

In one experiment the target is T1, TRKC (Homo sapiens, UniProt Q16288).
T1 construct: purchased Carna Biosciences 08-197
Briefly: In vitro biochemical HTRF KinEASE kinase inhibition, TRKC. Particulars: wild-type kinase, final ATP 2.526 μmol/L.

Another experiment has as its target T2, TRKA (Homo sapiens, UniProt P04629).
T2 construct: purchased Carna Biosciences 08-186
Briefly: In vitro biochemical HTRF KinEASE kinase inhibition, TRKA. Conditions: wild-type kinase, final ATP 3.727 μmol/L; read-out: TRKA IC50.

For a further experiment, the target named is T3, TRKB (Homo sapiens, UniProt Q16620).
T3 construct: purchased Carna Biosciences 08-187
T3 sequence (Q16620 32-822): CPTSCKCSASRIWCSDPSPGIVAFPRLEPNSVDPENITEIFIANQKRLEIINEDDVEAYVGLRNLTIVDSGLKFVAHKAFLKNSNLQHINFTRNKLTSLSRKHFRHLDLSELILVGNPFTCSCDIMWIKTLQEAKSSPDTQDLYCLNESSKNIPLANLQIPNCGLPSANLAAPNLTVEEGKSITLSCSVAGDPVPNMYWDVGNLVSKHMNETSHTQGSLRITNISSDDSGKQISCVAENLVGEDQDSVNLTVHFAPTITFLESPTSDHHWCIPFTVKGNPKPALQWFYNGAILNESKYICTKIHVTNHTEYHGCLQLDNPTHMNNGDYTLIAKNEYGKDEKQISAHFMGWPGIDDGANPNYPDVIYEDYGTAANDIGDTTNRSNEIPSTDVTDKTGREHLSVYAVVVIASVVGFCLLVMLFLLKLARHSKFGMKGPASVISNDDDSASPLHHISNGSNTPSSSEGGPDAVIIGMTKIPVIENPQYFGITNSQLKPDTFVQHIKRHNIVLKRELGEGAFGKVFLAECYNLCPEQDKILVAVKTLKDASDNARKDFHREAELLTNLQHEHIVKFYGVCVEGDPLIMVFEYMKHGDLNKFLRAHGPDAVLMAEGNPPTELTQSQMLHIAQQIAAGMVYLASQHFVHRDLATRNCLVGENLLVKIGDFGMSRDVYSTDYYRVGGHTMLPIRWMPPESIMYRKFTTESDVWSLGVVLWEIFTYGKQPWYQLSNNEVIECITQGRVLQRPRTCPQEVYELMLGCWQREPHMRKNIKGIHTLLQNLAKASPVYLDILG
The experiment can be described thus: In vitro biochemical HTRF KinEASE kinase inhibition, TRKB. Conditions: wild-type kinase, final ATP 2.56 μmol/L. How it is done: The material and the method are as follows: wild-type kinases such as TRKA, TRKB and TRKC, and mutant kinases such as TRKA-G595R, TRKA-G667C, TRKA-F589L, TRKC-G623R and TRKC-G696A, and are derived from Carna Biosciences 08-186, 08-187, 08-197; HTRF KinEASE TKkit (Cisbio 62TKO PEC); 384 well plates (Greiner corporation); ATP (Life technologies PV 3227), MgCl2 (sigma); PHERAstar FS Multifunctional microplate reader (BMG Co.); low speed centrifuge (StaiteXiangyi corporation); incubator (Binder company).
Preparing a compound working solution: the dispensed compounds were removed from the freezer prior to testing and diluted to 100× concentration with pure DMSO; then the compound was diluted to the desired concentration of 4× with deionized water;
Preparation of 1.33× enzyme buffer (enzyme buffer): 5× enzyme buffer (from HTRF kit) was diluted to 1.33× with deionized water and the corresponding ingredients were added at a final concentration of 1.33×: 1.33 mmol/L Dithiothreitol (DTT), 1.33 mmol/L MnCl2, 6.65 mmol/L MgCl2 and 39.9 nmol/L SEB;
Preparation of a kinase working solution: TRKA, TRKB and TRKC were diluted with 1.33× enzyme buffer to the required concentrations of 2× of 0.404 ng/μL, 0.304 ng/μL and 0.236 ng/μL, respectively;
Preparing a substrate working solution: a mixture of TK Substrate Blr diluted to the desired final concentration of 4× (from HTRF kit) and ATP (10 mM) with 1.33× enzyme buffer; the final ATP concentrations for TRKA, TRKB, and TRKC were: 3.727 μmol/L, 2.56 μmol/L and 2.526 μmol/L. The TK Substrate-biotin (from HTRF KinEASE TKkit) final concentrations were all: 0.2 μmol/L.
Preparing a detection working solution: 16.67 μmol/L of Streptavidin-XL665 (Streptavidin-XL 665) were diluted to the desired final concentration of 4× with HTRF test buffer and then mixed with an equal volume of Antibody-europium Cryptate (Antibody-Cryptate) (both from HTRF kits).
An enzyme reaction step: add 4 μL of kinase working solution to each well of a low volume 384 microwell plate along with 4 μL of 1.33× enzyme buffer as a Negative control (Negative); add 2 μl of compound working solution to the wells, while adding 2 μl of […] aqueous solution as a zero compound concentration control (i.e., Positive control, Positive); incubating at 25° C. for 5 min; add 2 μL of substrate working solution to the wells to start the enzymatic reaction, shake the reaction for 30 min at 37° C.
HTRF reagent detection step: adding […] to the hole to terminate the reaction; reacting for 1 h at 25° C.;
Reading of HTRF signal: the PHERAstar FS reading is adopted to detect signals, and the corresponding setting of the instrument is as follows:
For the raw data read out per well, the ratio=665 nm/620 nm;
Calculation of inhibition rate:
Calculation of IC50 values: with the logarithm of the compound concentration as abscissa and the inhibition as ordinate, a non-linear curve was fitted in GraphPad Prism 5: log (inhibitor) vs. response—Variable slope, and calculating the concentration of the compound to be detected, namely IC50, when the enzyme activity inhibition rate is 50%.
A general note: Time-resolved FRET reads energy transfer from a long-lived donor to a nearby acceptor.

Structures are written as SMILES.

T2 sequence (P04629 33-796): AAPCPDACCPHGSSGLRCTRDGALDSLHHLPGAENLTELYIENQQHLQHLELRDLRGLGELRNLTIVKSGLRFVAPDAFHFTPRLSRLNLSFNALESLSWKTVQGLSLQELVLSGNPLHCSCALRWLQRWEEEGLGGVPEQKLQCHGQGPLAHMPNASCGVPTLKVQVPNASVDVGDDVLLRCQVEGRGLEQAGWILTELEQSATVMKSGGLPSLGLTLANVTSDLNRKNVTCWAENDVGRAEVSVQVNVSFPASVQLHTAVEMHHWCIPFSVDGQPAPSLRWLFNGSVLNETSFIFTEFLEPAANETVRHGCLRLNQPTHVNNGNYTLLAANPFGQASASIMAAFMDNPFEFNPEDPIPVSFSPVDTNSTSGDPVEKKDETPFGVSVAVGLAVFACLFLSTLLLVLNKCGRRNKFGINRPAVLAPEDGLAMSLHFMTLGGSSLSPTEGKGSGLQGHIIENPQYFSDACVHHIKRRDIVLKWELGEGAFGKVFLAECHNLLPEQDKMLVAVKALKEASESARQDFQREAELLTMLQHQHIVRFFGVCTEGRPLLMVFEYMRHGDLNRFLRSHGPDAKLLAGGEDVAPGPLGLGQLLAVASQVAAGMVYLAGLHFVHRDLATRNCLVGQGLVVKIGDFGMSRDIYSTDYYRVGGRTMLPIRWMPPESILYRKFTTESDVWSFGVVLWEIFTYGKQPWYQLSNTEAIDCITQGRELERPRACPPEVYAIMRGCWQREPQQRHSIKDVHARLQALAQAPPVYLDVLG
T1 sequence (Q16288 32-825 isoform Q16288-3 limits assumed): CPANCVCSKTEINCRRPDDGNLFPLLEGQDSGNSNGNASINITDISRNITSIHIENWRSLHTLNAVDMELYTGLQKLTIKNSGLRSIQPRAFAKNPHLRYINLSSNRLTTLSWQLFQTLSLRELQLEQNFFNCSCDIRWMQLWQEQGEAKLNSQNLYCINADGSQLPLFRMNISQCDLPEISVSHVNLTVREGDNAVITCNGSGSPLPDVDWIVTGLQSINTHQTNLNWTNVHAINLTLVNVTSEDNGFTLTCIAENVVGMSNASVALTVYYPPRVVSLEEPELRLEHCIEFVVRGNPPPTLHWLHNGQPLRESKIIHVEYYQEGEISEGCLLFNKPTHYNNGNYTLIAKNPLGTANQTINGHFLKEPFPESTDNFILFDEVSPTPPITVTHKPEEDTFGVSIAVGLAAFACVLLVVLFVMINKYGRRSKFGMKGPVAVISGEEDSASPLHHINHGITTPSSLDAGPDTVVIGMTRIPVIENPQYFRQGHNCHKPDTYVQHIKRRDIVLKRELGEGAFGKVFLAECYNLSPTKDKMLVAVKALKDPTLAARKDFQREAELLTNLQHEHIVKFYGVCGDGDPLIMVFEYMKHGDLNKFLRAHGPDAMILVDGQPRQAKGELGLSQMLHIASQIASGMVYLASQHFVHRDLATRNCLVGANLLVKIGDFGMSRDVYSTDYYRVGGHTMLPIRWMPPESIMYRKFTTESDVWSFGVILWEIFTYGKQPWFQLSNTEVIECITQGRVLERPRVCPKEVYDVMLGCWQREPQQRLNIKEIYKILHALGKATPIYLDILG

In the case of `CC(Nc1ccn2ncc(-c3cnn(C(F)F)c3)c2n1)c1cc(F)ccc1OCC(F)F` (stereo not drawn) [Compound 3, N-(1-(2-(2,2-difluoroethoxy)-5-fluorophenyl)ethyl)-3-(1-(difluoromethyl)-1H-pyrazol-4-yl) pyrazolo [1,5-a] pyrimidin-5-amine], the values for the half-maximal inhibitory concentration (IC50) against TRKC, at TRKA and at TRKB were 7.1 nM, 5.8 nM and 4.8 nM, respectively.
With `CC(Nc1ccn2ncc(-c3cnn(C4CC4)c3)c2n1)c1cc(F)ccc1OCC(F)F` (stereo not drawn) [Compound 4, 3-(1-cyclopropyl-1H-pyrazol-4-yl)-N-(1-(2-(2,2-difluoroethoxy)-5-fluorophenyl)ethyl) pyrazolo [1,5-a] pyrimidin-5-amine], the IC50 against TRKC is 24.9 nM; at TRKA it was 12.2 nM; against TRKB, 15.9 nM.
Take `C[C@@H](Nc1ccn2ncc(-c3cnn(CC#N)c3)c2n1)c1cc(F)ccc1OCC(F)F` [Compound 7]: the 50% inhibitory concentration (IC50) against TRKC was determined as 2.4 nM; at TRKA, 2.4 nM; at TRKB, 1.3 nM.
In the case of `CC(Nc1ccn2ncc(-c3cnn(C4CCCC4O)c3)c2n1)c1cc(F)ccc1OCC(F)F` (stereo not drawn) [Compound 8, 2-(4-(5-((1-(2-(2,2-difluoroethoxy)-5-fluorophenyl)ethyl)amino)pyrazolo [1,5-a]pyrimidin-3-yl)-1H-pyrazol-1-yl) cyclopentan-1-ol], the IC50 at TRKC was found to be 9.8 nM; at TRKA, 5.4 nM; on TRKB, 5.7 nM.
As to `C[C@@H](Nc1ccn2ncc(-c3cnn(C4CCCCO4)c3)c2n1)c1cc(F)ccc1OCC(F)F` (stereo partly drawn) [Compound 10, N-((R)-1-(2-(2,2-difluoroethoxy)-5-fluorophenyl)ethyl)-3-(1-(tetrahydro-2H-pyran-2-yl)-1H-pyrazol-4-yl) pyrazolo [1,5-a] pyrimidin-5-amine], the 50% inhibitory concentration (IC50) was 5.5 nM against TRKC, 3.8 nM on TRKA and 2.7 nM against TRKB.
On the same counts, the results for `CC(=O)n1cc(-c2cnn3ccc(N[C@H](C)c4cc(F)ccc4OCC(F)F)nc23)cn1` [Compound 12, (R)-1-(4-(5-((1-(2-(2,2-difluoroethoxy)-5-fluorophenyl)ethyl)amino)pyrazolo [1,5-a]pyrimidin-3-yl)-1H-pyrazol-1-yl) ethanone] are 4.7 nM, 3.3 nM and 3.5 nM.
On to `CC(Nc1ccn2ncc(-c3cn[nH]c3)c2n1)c1cc(F)cc(F)c1OCC(F)F` (stereo not drawn) [Compound 14, N-(1-(2-(2,2-difluoroethoxy)-3,5-difluorophenyl)ethyl)-3-(1H-pyrazol-4-yl) pyrazolo [1,5-a] pyrimidin-5-amine], for which the IC50 at TRKC is 6.7 nM; on TRKA, 11.3 nM; on TRKB, 4.2 nM.
As to `CC(Nc1ccn2ncc(-c3cn[nH]c3)c2n1)c1ccccc1OCC(F)F` (stereo not drawn) [Compound 16, N-(1-(2-(2,2-difluoroethoxy)phenyl)ethyl)-3-(1H-pyrazol-4-yl) pyrazolo [1,5-a] pyrimidin-5-amine], the IC50 against TRKC amounted to 12.2 nM; on TRKA it was 8.5 nM; against TRKB, 8.6 nM.
With `CC(Nc1ccn2ncc(-c3cnn(C4CCCC4O)c3)c2n1)c1cc(F)ccc1O` (stereo not drawn) [Compound a2-3, 4-fluoro-2-(1-((3-(1-(2-hydroxycyclopentyl)-1H-pyrazol-4-yl)pyrazolo [1,5-a]pyrimidin-5-yl)amino)ethyl) phenol], the concentration for half-maximal inhibition (IC50) at TRKC was 8.5 nM; on TRKA it was 10.5 nM; on TRKB, 5.1 nM.
On the same counts, the results for `C[C@@H](Nc1ccn2ncc(-c3cnn(C)c3)c2n1)c1cc(F)ccc1OCCF` [Compound a10-17, (R)-N-(1-(5-fluoro-2-(2-fluoroethoxy)phenyl)ethyl)-3-(1-methyl-1H-pyrazol-4-yl) pyrazolo [1,5-a] pyrimidin-5-amine] are 15.1 nM, 2.3 nM and 1.5 nM.
`CC(Nc1ccn2ncc(-c3cnn(C)c3)c2n1)c1cc(F)ccc1OCC1CC1` (stereo not drawn) [Compound a26-38, N-(1-(2-(cyclopropylmethoxy)-5-fluorophenyl)ethyl)-3-(1-methyl-1H-pyrazol-4-yl) pyrazolo [1,5-a] pyrimidin-5-amine]: the IC50 turned out to be 9.9 nM against TRKC, 11.5 nM on TRKA and 6.7 nM on TRKB.
With `CC(Nc1ccn2ncc(-c3cnn(C)c3)c2n1)c1cc(F)ccc1OC1CCOC1` (stereo not drawn) [Compound a27-41, N-(1-(5-fluoro-2-((tetrahydrofuran-3-yl)oxy)phenyl)ethyl)-3-(1-methyl-1H-pyrazol-4-yl) pyrazolo [1,5-a] pyrimidin-5-amine], the IC50 against TRKC is 7.1 nM; on TRKA it was 7.7 nM; against TRKB it was 5.8 nM.
For `CC(Nc1ccn2ncc(-c3cn[nH]c3)c2n1)c1cc(F)ccc1OCF` (stereo not drawn) [Compound b3-6, N-(1-(5-fluoro-2-(fluoromethoxy)phenyl)ethyl)-3-(1H-pyrazol-4-yl) pyrazolo [1,5-a] pyrimidin-5-amine], the half-maximal inhibitory concentration (IC50) against TRKC came out at 15.5 nM; on TRKA, 18.1 nM; against TRKB it was 13 nM.
For `CC(Nc1ccn2ncc(-c3cn[nH]c3)c2n1)c1cc(F)ccc1OC(F)F` (stereo not drawn) [Compound b4-7, N-(1-(2-(difluoromethoxy)-5-fluorophenyl)ethyl)-3-(1H-pyrazol-4-yl) pyrazolo [1,5-a] pyrimidin-5-amine], in that order: 3.8 nM, 3.37 nM and 3.1 nM.
On the same counts, the results for `CCOc1ccc(F)cc1C(C)Nc1ccn2ncc(-c3cn[nH]c3)c2n1` (stereo not drawn) [Compound b5-11, N-(1-(2-ethoxy-5-fluorophenyl)ethyl)-3-(1H-pyrazol-4-yl) pyrazolo [1,5-a]pyrimidin-5-amine] are 8.4 nM, 8.4 nM and 4.3 nM.
Turning to `CCCOc1ccc(F)cc1C(C)Nc1ccn2ncc(-c3cn[nH]c3)c2n1` (stereo not drawn) [Compound b9-33, N-(1-(5-fluoro-2-propoxyphenyl)ethyl)-3-(1H-pyrazol-4-yl) pyrazolo [1,5-a] pyrimidin-5-amine], the figures for the half-maximal inhibitory concentration (IC50) against TRKC, on TRKA and against TRKB were 12.2 nM, 6 nM and 5.5 nM, respectively.
For `CC(Nc1ccn2ncc(-c3cn[nH]c3)c2n1)c1cc(F)ccc1OCCCF` (stereo not drawn) [Compound b10-34, N-(1-(5-fluoro-2-(3-fluoropropoxy)phenyl)ethyl)-3-(1H-pyrazol-4-yl) pyrazolo [1,5-a] pyrimidin-5-amine], in that order: 14.1 nM, 9.7 nM and 9.8 nM.
Consider `CC(Nc1ccn2ncc(-c3cn[nH]c3)c2n1)c1cc(F)ccc1OC1CCCC1` (stereo not drawn) [Compound b13-39, N-(1-(2-(cyclopentyloxy)-5-fluorophenyl)ethyl)-3-(1H-pyrazol-4-yl) pyrazolo [1,5-a] pyrimidin-5-amine], for which the results for the IC50 at TRKC, at TRKA and against TRKB were 8 nM, 7.9 nM and 5.9 nM, respectively.
Take `CC(Nc1ccn2ncc(-c3cn[nH]c3)c2n1)c1cc(F)ccc1OC1CCOC1` (stereo not drawn) [Compound b14-40, N-(1-(5-fluoro-2-((tetrahydrofuran-3-yl)oxy)phenyl)ethyl)-3-(1H-pyrazol-4-yl) pyrazolo [1,5-a] pyrimidin-5-amine]: the concentration for half-maximal inhibition (IC50) turned out to be 11.7 nM against TRKC, 4.51 nM on TRKA and 8.6 nM against TRKB.
